Measurements as given in PubChem BioAssay AID651677 (The Scripps Research Institute Molecular Screening Center, 2012).
pIC50: −log10 of the molar value. The source made the active and inactive calls. The rule behind the calls is not given here.

biological target: Perilipin-5 (Homo sapiens) + 1-acylglycerol-3-phosphate O-acyltransferase ABHD5 (Homo sapiens) (UniProt Q00G26+Q8WTS1); assay: blockers of ABHD5 binding to perilipin-5 – biochemical, luminescence, dose response (AID 651677); conditions: ABHD5-PLIN5 interaction
Sequence (Q00G26 whole entry, looked up): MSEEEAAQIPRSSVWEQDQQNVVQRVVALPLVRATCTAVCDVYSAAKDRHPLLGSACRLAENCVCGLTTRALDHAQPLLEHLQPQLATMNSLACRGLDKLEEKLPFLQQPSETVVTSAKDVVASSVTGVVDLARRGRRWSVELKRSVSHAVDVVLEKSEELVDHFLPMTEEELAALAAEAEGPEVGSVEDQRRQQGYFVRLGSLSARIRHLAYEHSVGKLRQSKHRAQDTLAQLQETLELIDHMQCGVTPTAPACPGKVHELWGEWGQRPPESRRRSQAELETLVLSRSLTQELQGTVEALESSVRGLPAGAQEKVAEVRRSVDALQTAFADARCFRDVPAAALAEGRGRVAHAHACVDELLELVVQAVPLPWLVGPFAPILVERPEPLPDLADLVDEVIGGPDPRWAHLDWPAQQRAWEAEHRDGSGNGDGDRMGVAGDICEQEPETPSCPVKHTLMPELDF
Sequence (Q8WTS1 whole entry, looked up): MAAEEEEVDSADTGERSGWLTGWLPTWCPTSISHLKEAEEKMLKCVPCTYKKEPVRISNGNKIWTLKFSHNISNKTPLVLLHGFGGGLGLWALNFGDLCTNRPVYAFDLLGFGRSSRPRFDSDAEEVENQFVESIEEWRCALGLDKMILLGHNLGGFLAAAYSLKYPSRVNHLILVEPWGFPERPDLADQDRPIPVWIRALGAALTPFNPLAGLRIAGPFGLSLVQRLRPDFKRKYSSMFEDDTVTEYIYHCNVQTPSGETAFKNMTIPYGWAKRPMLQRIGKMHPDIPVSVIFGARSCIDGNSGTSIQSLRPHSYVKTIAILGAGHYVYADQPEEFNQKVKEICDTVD

| Compound | pIC50 | IC50 |
| --- | --- | --- |
| CCC(=O)Nc1cccc(C(=O)/C=C/c2ccccc2)c1 | 5.57 | – |
| COc1ccc(NC(=O)C(c2cccc3ccccc23)n2c(=O)c(-c3ccco3)nc3ccccc32)cc1 (stereo not given) | – | inactive |
| COc1ccc(OCc2cn(CC(=O)c3ccc(O)cc3)nn2)cc1 | 5.51 | – |
| CC(=O)Cc1cc(O)c2ccccc2c1OC(=O)c1ccc(Br)cc1 | 5.60 | – |
| O=S(=O)(NC1=NCCCCC1)c1ccc2sc(NS(=O)(=O)c3ccc4ccccc4c3)nc2c1 | – | inactive |
| Cc1ccc(C)c(/C=C/C(=O)c2ccccc(=O)c2O)c1 | 5.39 | – |
| CC(C)c1ccc(N2C=Nc3ccc(C(C)C)cc3C2)cc1 | – | inactive |
| COc1ccc(/C=C/C(=O)c2cc(F)ccc2OC(=O)c2ccc(OC)c(OC)c2)cc1OC | 5.56 | – |
| O=C(COc1ccccc1Cl)Nc1ccc(N2CCCC2)cc1 | – | > 39900 nM (inactive) |
| CCCNC(=O)Nc1ccc2c(c1)N(C)C(=O)c1ccccc1S2 | 5.06 | – |
| CC(CCc1ccco1)NC(=O)CCc1nnc2ccc(NCc3ccccc3Cl)nn12 (stereo not given) | 5.05 | – |
| CCSc1ccc2c(c1)N(CCCN1CCN(C)CC1)c1ccccc1S2 | 5.23 | – |
| CSc1nnc(NC(=O)c2nc(S(=O)(=O)Cc3ccccc3F)ncc2Cl)s1 | 5.56 | – |
| Cc1cc(C)c2nc(NNC(=O)c3ccc(S(=O)(=O)N4CCCC(C)C4)cc3)sc2c1 (stereo not given) | 5.28 | – |

Further molecules by rising pIC50, results first:

| pIC50 | IC50 | Compound |
| --- | --- | --- |
| 5.62 | – | CC(C)(C)NC(=O)C(c1cccc2ccccc12)n1c(=O)c(-c2ccco2)nc2ccccc21 (stereo not given) |
| 5.64 | – | CC(=O)Nc1ccc(OCc2cn(CC(=O)c3ccc(O)cc3)nn2)cc1 |
| 5.64 | – | O=C(NCc1ccccc1)C(c1ccccc1F)n1c(=O)c(-c2ccco2)nc2ccccc21 (stereo not given) |
| 5.67 | – | CC1CN(Cc2c(O)ccc3c2oc(=O)c2ccccc23)CC(C)O1 (stereo not given) |
| 5.89 | – | CC(C)(C)NC(=O)C(c1ccc(-c2ccccc2)cc1)n1c(=O)c(-c2ccco2)nc2ccccc21 (stereo not given) |
| 5.90 | – | O=C(NC1CCCCC1)C(c1ccccc1F)n1c(=O)c(-c2ccco2)nc2ccccc21 (stereo not given) |
